According to patent US20120201768A1, “COSMETIC COMPOSITIONS COMPRISING FICUS SERUM FRACTION AND METHODS TO REDUCE THE APPEARANCE OF SKIN HYPERPIGMENTATION” (priority 2010, published 2012):

System: hyperpigmented spots
Assay: In vivo testing for hyperpigmented spot reduction and melanin evenness (9 week split face study)
Parameters: species or system humans
Details: for Melanin Evenness versus Vehicle / NC2 SAF (spot area fraction) versus Vehicle: vehicle+0.55% FSF or vehicle+5% Niacinamide, twice daily, split face
Procedure: A 9 week in-vivo study was conducted using a round robin, vehicle controlled, split face design including a 1 week normalization period with 270 subjects. The 270 subjects were screened according to inclusion/exclusion criteria which included the following:
Has hyperpigmented spots around cheek and/or periorbital area on both sides of the face.
Has at least 1 hyperpigmented spot of 8-10 mm diameter, 4 spots of 4-6 mm or 10 spots of 2-3 mm diameter (sun spots, freckles, or melasma spots) or equivalent spot area in the cheek area on each side of their face.
Is willing to refrain from sun exposure by using supplied UV lotion and physical UV blocks, such as a hat, to avoid facial sunburn, tanning or wind burn.
Has been diagnosed as having atopy, eczema, psoriasis, or other chronic skin diseases.
Has obvious signs of facial skin disease (e.g., more than 5 pimples, areas of red scaling skin, superficial thin blood vessels, etc.).
Has significant areas of discoloration or scarring on the face.
Has more than 3 prominent moles (<3 mm) on the face.
Two hundred and seventy subjects were recruited for the study. […] Each subject received two coded test formulations for twice daily application to each half of the face. Images of the facial treatment sites were captured at baseline (week 0), and after 4 and 8 weeks of treatment and analyzed for changes to skin color and spot size and color. The product formulations included a vehicle control, the vehicle+0.55% FSF, and the vehicle+5% vitamin B3 compound (Niacinamide).
Noncontact spectrophotometric intracutaneous analysis (SiaScopy, Astron Clinica, UK) was used to collect and analyze the subject images. The method used a digital camera (e.g., Fuji S2 digital SLR) as a […] and a flash lighting source (e.g., Sigma Super flash light source) to recover facial chromophore information. A cross polarized filter was placed in front of the camera and the lighting source to eliminate specular reflection.
Chromophore mapping of the concentration and distribution of eumelanin (melanin) and oxyhaemoglobin produces grayscale concentration maps of each of these chromophores. Image analysis software, such as Optimas 6.5, can be used to select a region of interest in each chromophore map from which mean grayscale values and spot area fraction are calculated. Spot area fraction refers to total area occupied by melanin spots as a percentage of the whole region of interest. A description of one type of chromophore mapping can be found in EP 1,810,614 and “The Distribution of Melanin in Skin Determined In Vivo”, British Journal of Dermatology, 2007, pp 620-628.
Table 15 summarizes the image analysis data, wherein SAF is the mean Spot Area Fraction and A SAF is the mean change in Spot Area Fraction from baseline (week 0).

Compound: NC(=O)c1cccnc1 [Niacinamide]
- Melanin Evenness versus Vehicle (4 weeks): ns (ns = not significant (p > 0.3))
- NC2 SAF (spot area fraction) versus Vehicle (4 weeks): ns (ns = not significant (p > 0.3))
- Melanin Evenness versus Vehicle (8 weeks): Sig
- NC2 SAF (spot area fraction) versus Vehicle (8 weeks): Sig
- reduction of hyperpigmented spots (in words) (after 8 weeks, vehicle+0.55% FSF, vehicle+5% vitamin B3, control): best performer
